Data reported in patent publication US20240100065A1, “METHODS FOR TREATING RECEPTOR-INTERACTING PROTEIN KINASE 1-MEDIATED DISEASES” (Genzyme Corporation, priority 2022, published 2024).

Test: Safety and tolerability (TEAEs, PCSAs, laboratory tests) in phase 1 study Parts 1a, 1b, 2
Format: in vivo, healthy adult participants (human)
Description: This single ascending dose (SAD) study consisted of three parts: Part 1a, which is a phase 1, randomized, placebo-controlled, double-blind, sequential ascending single dose study; Part 1b, which is phase 1, open-label, sequential single dose study; and Part 2, which is an ascending 14-day repeated oral dose study.
Part 1a evaluated 4 sequential ascending dose levels of Compound 1 under fasted conditions: 10 mg, 20 mg, 30 mg, and 40 mg, each dose per cohort. Participants were fasted overnight for at least 8 hours before the morning dose and 2 hours after dosing.
Part 1b is an open-label study with two single dose levels of Compound 1, previously tested for safety/tolerability in SAD cohorts of Part 1a, were selected (10 mg and 40 mg) and sequentially administered under a fed condition, each dose per cohort. Participants were fasted overnight for at least 8 hours, and then fed with a light breakfast approximately 30 minutes before Compound 1 dosing. In both Part 1a and 1b, all participants received one single dose of treatment.
Part 2 was a randomized, double-blind, placebo-controlled study that evaluated 14-day multiple ascending oral doses of Compound 1 once daily (OD) or twice daily (BID) regimen under fasted conditions: 10 mg QD, 20 mg QD, 15 mg BID, and 20 mg BID. Participants fasted overnight for at least 8 hours before the morning dose and 2 hours after dosing on Day 1 and Day 14. All other morning doses were administered after an overnight fast and approximately 30 minutes before a breakfast snack. Sentinel dosing approach was followed where two of ten participants in each cohort were dosed the first day (n=1, Compound; n=1, placebo) in advance of the full cohort. The remaining 8 participants from each cohort were randomized to receive either Compound or placebo (randomized 7:1) on the following days with at least 48-hour interval from dosing of the sentinel participants, allowing a safety evaluation at the predicted steady state.
Safety and tolerability were assessed by physical examination, neurological examination, monitoring adverse events (AEs) and potentially clinically significant abnormalities (PCSAs) in clinical laboratory tests (hematology, clinical chemistry, and urinalysis), vital signs (body temperature, blood pressure and heart rate), and ECG parameters (heart rate, RR, PR, QRS, QT, QTcF, QTcB intervals) measured in the standard 12-lead ECG or ECGs extracted from 24-hour Holter ECG data.
Safety population included all participants who received at least one dose of study intervention (Compound 1 or placebo). All safety assessments (AEs, laboratory parameters, vital signs) were based on the review of individual values and were summarized using descriptive statistics. Safety analysis was focused on treatment-emergent period, defined as the time from the first investigational medicinal product (IMP) administration up to the end of study visit (included). AEs were coded according to the Medical Dictionary for Regulatory Activities (MedDRA, version 23.1 in Part 1a and Part 1b; version 24 in Part 2). Severity was graded from Grade 1 to 4 according to the Food and Drug Administration (FDA) Guidance for Industry. Number (%) of participants experiencing TEAEs and potentially clinically significant abnormality (PCSAs) in clinical chemistry, vital signs, and ECGs were summarized by dose level group.

SMILES: CC(C)(C(=O)N1CCOc2c(C#N)cncc2C1)C(F)F [Compound 1, 4-(3,3-difluoro-2,2-dimethyl-propanoyl)-3,5-dihydro-2H-pyrido[3,4-f] [1,4]oxazepine-9-carbonitrile]
- Any Grade ≥3 TEAE, participants (Part 1a single 10 mg fasted): 0 n
- Any TEAE, participants (Part 1a single 10 mg fasted): 2 n
- Any treatment-emergent AESI, participants (Part 1a single 10 mg fasted): 0 n
- Any treatment-emergent SAE, participants (Part 1a single 10 mg fasted): 0 n
- TEAE Blood creatine phosphokinase increased, participants (Part 1a single 10 mg fasted): 0 n
- TEAE Cardiac disorders, participants (Part 1a single 10 mg fasted): 1 n
- TEAE Dermatitis contact, participants (Part 1a single 10 mg fasted): 1 n
- TEAE Dizziness, participants (Part 1a single 10 mg fasted): 0 n
- TEAE Eye disorders, participants (Part 1a single 10 mg fasted): 0 n
- TEAE Fatigue, participants (Part 1a single 10 mg fasted): 0 n
- TEAE General disorders and administration site conditions, participants (Part 1a single 10 mg fasted): 0 n
- TEAE Headache, participants (Part 1a single 10 mg fasted): 0 n
- TEAE Investigations, participants (Part 1a single 10 mg fasted): 0 n
- TEAE Keratitis, participants (Part 1a single 10 mg fasted): 0 n
- TEAE Medical device site dermatitis, participants (Part 1a single 10 mg fasted): 0 n
- TEAE Musculoskeletal and connective tissue disorders, participants (Part 1a single 10 mg fasted): 0 n
- TEAE Myalgia, participants (Part 1a single 10 mg fasted): 0 n
- TEAE Nervous system disorders, participants (Part 1a single 10 mg fasted): 0 n
- TEAE Presyncope, participants (Part 1a single 10 mg fasted): 0 n
- TEAE Skin and subcutaneous tissue disorders, participants (Part 1a single 10 mg fasted): 1 n
- TEAE Skin irritation, participants (Part 1a single 10 mg fasted): 0 n
- TEAE Tachycardia, participants (Part 1a single 10 mg fasted): 0 n
- TEAE Thrombophlebitis, participants (Part 1a single 10 mg fasted): 0 n
- TEAE Vascular disorders, participants (Part 1a single 10 mg fasted): 0 n
- TEAE Ventricular extrasystoles, participants (Part 1a single 10 mg fasted): 1 n
- TEAE Vessel puncture site hypoaesthesia, participants (Part 1a single 10 mg fasted): 0 n
- TEAE Vessel puncture site pain, participants (Part 1a single 10 mg fasted): 0 n
- Any Grade ≥3 TEAE, participants (Part 1a single 20 mg fasted): 0 n
- Any TEAE, participants (Part 1a single 20 mg fasted): 1 n
- Any treatment-emergent AESI, participants (Part 1a single 20 mg fasted): 0 n
- Any treatment-emergent SAE, participants (Part 1a single 20 mg fasted): 0 n
- TEAE Blood creatine phosphokinase increased, participants (Part 1a single 20 mg fasted): 0 n
- TEAE Cardiac disorders, participants (Part 1a single 20 mg fasted): 1 n
- TEAE Dermatitis contact, participants (Part 1a single 20 mg fasted): 0 n
- TEAE Dizziness, participants (Part 1a single 20 mg fasted): 0 n
- TEAE Eye disorders, participants (Part 1a single 20 mg fasted): 0 n
- TEAE Fatigue, participants (Part 1a single 20 mg fasted): 0 n
- TEAE General disorders and administration site conditions, participants (Part 1a single 20 mg fasted): 0 n
- TEAE Headache, participants (Part 1a single 20 mg fasted): 1 n
- TEAE Investigations, participants (Part 1a single 20 mg fasted): 0 n
- TEAE Keratitis, participants (Part 1a single 20 mg fasted): 0 n
- TEAE Medical device site dermatitis, participants (Part 1a single 20 mg fasted): 0 n
- TEAE Musculoskeletal and connective tissue disorders, participants (Part 1a single 20 mg fasted): 0 n
- TEAE Myalgia, participants (Part 1a single 20 mg fasted): 0 n
- TEAE Nervous system disorders, participants (Part 1a single 20 mg fasted): 1 n
- TEAE Presyncope, participants (Part 1a single 20 mg fasted): 0 n
- TEAE Skin and subcutaneous tissue disorders, participants (Part 1a single 20 mg fasted): 0 n
- TEAE Skin irritation, participants (Part 1a single 20 mg fasted): 0 n
- TEAE Tachycardia, participants (Part 1a single 20 mg fasted): 1 n
- TEAE Thrombophlebitis, participants (Part 1a single 20 mg fasted): 0 n
- TEAE Vascular disorders, participants (Part 1a single 20 mg fasted): 0 n
- TEAE Ventricular extrasystoles, participants (Part 1a single 20 mg fasted): 0 n
- TEAE Vessel puncture site hypoaesthesia, participants (Part 1a single 20 mg fasted): 0 n
- TEAE Vessel puncture site pain, participants (Part 1a single 20 mg fasted): 0 n
- Any Grade ≥3 TEAE, participants (Part 1a single 30 mg fasted): 0 n
- Any TEAE, participants (Part 1a single 30 mg fasted): 3 n
- Any treatment-emergent AESI, participants (Part 1a single 30 mg fasted): 0 n
- Any treatment-emergent SAE, participants (Part 1a single 30 mg fasted): 0 n
- Dizziness, events (Part 1a single 30 mg fasted): 3 events
- TEAE Blood creatine phosphokinase increased, participants (Part 1a single 30 mg fasted): 0 n
- TEAE Cardiac disorders, participants (Part 1a single 30 mg fasted): 0 n
- TEAE Dermatitis contact, participants (Part 1a single 30 mg fasted): 1 n
- TEAE Dizziness, participants (Part 1a single 30 mg fasted): 2 n
- TEAE Eye disorders, participants (Part 1a single 30 mg fasted): 1 n
- TEAE Fatigue, participants (Part 1a single 30 mg fasted): 1 n
- TEAE General disorders and administration site conditions, participants (Part 1a single 30 mg fasted): 1 n
- TEAE Headache, participants (Part 1a single 30 mg fasted): 0 n
- TEAE Investigations, participants (Part 1a single 30 mg fasted): 0 n
- TEAE Keratitis, participants (Part 1a single 30 mg fasted): 1 n
- TEAE Medical device site dermatitis, participants (Part 1a single 30 mg fasted): 0 n
- TEAE Musculoskeletal and connective tissue disorders, participants (Part 1a single 30 mg fasted): 0 n
- TEAE Myalgia, participants (Part 1a single 30 mg fasted): 0 n
- TEAE Nervous system disorders, participants (Part 1a single 30 mg fasted): 2 n
- TEAE Presyncope, participants (Part 1a single 30 mg fasted): 0 n
- TEAE Skin and subcutaneous tissue disorders, participants (Part 1a single 30 mg fasted): 1 n
- TEAE Skin irritation, participants (Part 1a single 30 mg fasted): 0 n
- TEAE Tachycardia, participants (Part 1a single 30 mg fasted): 0 n
- TEAE Thrombophlebitis, participants (Part 1a single 30 mg fasted): 1 n
- TEAE Vascular disorders, participants (Part 1a single 30 mg fasted): 1 n
- TEAE Ventricular extrasystoles, participants (Part 1a single 30 mg fasted): 0 n
- TEAE Vessel puncture site hypoaesthesia, participants (Part 1a single 30 mg fasted): 0 n
- TEAE Vessel puncture site pain, participants (Part 1a single 30 mg fasted): 0 n
- Any Grade ≥3 TEAE, participants (Part 1a single 40 mg fasted): 0 n
- Any TEAE, participants (Part 1a single 40 mg fasted): 3 n
- Any treatment-emergent AESI, participants (Part 1a single 40 mg fasted): 0 n
- Any treatment-emergent SAE, participants (Part 1a single 40 mg fasted): 0 n
- Dizziness, events (Part 1a single 40 mg fasted): 1 event
- TEAE Blood creatine phosphokinase increased, participants (Part 1a single 40 mg fasted): 0 n
- TEAE Cardiac disorders, participants (Part 1a single 40 mg fasted): 1 n
- TEAE Dermatitis contact, participants (Part 1a single 40 mg fasted): 1 n
- TEAE Dizziness, participants (Part 1a single 40 mg fasted): 1 n
